PubChem BioAssay AID1963861 (Molecular Pharmacology Branch, DTP, NCI, 2024)
Values joined by “and” are separate entries in the source; they are usually repeats but may differ in a detail not shown here. Identical values can stand only once.

Test system: 885724-159-R-J1-PDC KRAS PDC multicell spheroid viability
Assay: Anticancer human tumor 885724-159-R-J1-PDC patient-derived pancreatic adenocarcinoma cell line growth inhibition [KRAS2]
Settings: for viability, T/C: stronger effect = lower value
Method in brief: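 Combination screen of spheroid viability in tumor-cell co-cultures with endothelial (HUVEC) and mesenchymal stem cell stroma. Each agent was tested in half-log dilutions, topping at clinical Cmax or at 10 microM without a known Cmax.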

[1] = curve of first compound, second compound 0.1 µM
[2] = curve of first compound, second compound 0.316 µM
[3] = curve of first compound, second compound 1 µM
[4] = curve of first compound, second compound 3.16 µM
[5] = curve of first compound, second compound 10 µM
[6] = second compound 0.1 µM, first compound 0.0316 µM
[7] = second compound 0.1 µM, first compound 0.1 µM
[8] = second compound 0.1 µM, first compound 0.316 µM
[9] = second compound 0.1 µM, first compound 1 µM
[10] = second compound 0.1 µM, first compound 3.16 µM
[11] = second compound 0.1 µM, first compound 10 µM
[12] = second compound 0.316 µM, first compound 0.0316 µM
[13] = second compound 0.316 µM, first compound 0.1 µM
[14] = second compound 0.316 µM, first compound 0.316 µM
[15] = second compound 0.316 µM, first compound 1 µM
[16] = second compound 0.316 µM, first compound 3.16 µM
[17] = second compound 0.316 µM, first compound 10 µM
[18] = second compound 1 µM, first compound 0.0316 µM
[19] = second compound 1 µM, first compound 0.1 µM
[20] = second compound 1 µM, first compound 0.316 µM
[21] = second compound 1 µM, first compound 1 µM
[22] = second compound 1 µM, first compound 3.16 µM
[23] = second compound 1 µM, first compound 10 µM
[24] = second compound 3.16 µM, first compound 0.0316 µM
[25] = second compound 3.16 µM, first compound 0.1 µM
[26] = second compound 3.16 µM, first compound 0.316 µM
[27] = second compound 3.16 µM, first compound 1 µM
[28] = second compound 3.16 µM, first compound 3.16 µM
[29] = second compound 3.16 µM, first compound 10 µM
[30] = second compound 10 µM, first compound 0.0316 µM
[31] = second compound 10 µM, first compound 0.1 µM
[32] = second compound 10 µM, first compound 0.316 µM
[33] = second compound 10 µM, first compound 1 µM
[34] = second compound 10 µM, first compound 3.16 µM
[35] = second compound 10 µM, first compound 10 µM
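Note: spheroids exposed to agents for 7 days before readout.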

Molecule `CC(C)NCC(C(=O)N1CCN(c2ncnc3c2C(C)CC3O)CC1)c1ccc(Cl)cc1` (stereo unspecified) + CC1OCC2(CCN(c3cnc(Sc4ccnc(N)c4Cl)c(N)n3)CC2)C1N has an IC50 [1] of 8.34 µM, an IC50 [2] of 5.81 µM and an IC50 [3] of 2.21 µM. It also gave an IC50 [4] of 0.524 µM, an IC50 [5] of 0.1 µM and a viability, T/C [6] of 77.6%. It also gave a viability, T/C [7] of 72.6%, a viability, T/C [8] of 64.5% and a viability, T/C [9] of 65.5%. The viability, T/C [10] was 63.8%, the viability, T/C [11] was 45.9% and the viability, T/C [12] was 72.5%. It also gave a viability, T/C [13] of 60.3%, a viability, T/C [14] of 58.9% and a viability, T/C [15] of 61.5%. The viability, T/C [16] was 59.7%, the viability, T/C [17] was 42.7% and the viability, T/C [18] was 67.8%. It also gave a viability, T/C [19] of 62.1%, a viability, T/C [20] of 55% and a viability, T/C [21] of 51.4%. It also gave a viability, T/C [22] of 54.4%, a viability, T/C [23] of 41.7% and a viability, T/C [24] of 57.1%. The viability, T/C [25] was 55.6%, the viability, T/C [26] was 46.2% and the viability, T/C [27] was 47.5%. The viability, T/C [28] was 46.5%, the viability, T/C [29] was 32.2% and the viability, T/C [30] was 56.4%. It also gave a viability, T/C [31] of 49.6%, a viability, T/C [32] of 42.4% and a viability, T/C [33] of 37%. The viability, T/C [34] was 36.2% and the viability, T/C [35] was 21.8%.
For `CCN1CCN(Cc2ccc(Nc3ncc(F)c(-c4cc(F)c5nc(C)n(C(C)C)c5c4)n3)nc2)CC1`, the viability, T/C (compound 0.00316 µM) was 108% (2×) and 101% and 103% (2×), the viability, T/C (compound 0.01 µM) was 100% [middle of 5 runs] and the viability, T/C (compound 0.0316 µM) was 89.9% [middle of 5 runs]. The viability, T/C (compound 0.1 µM) was 88.7% [middle of 5 runs], the viability, T/C (compound 0.316 µM) was 92.5% [middle of 5 runs] and the viability, T/C (compound 1 µM) was 94% [middle of 5 runs]. The IC50 (curve of compound) was over 1 µM.
`CCN1CCN(Cc2ccc(Nc3ncc(F)c(-c4cc(F)c5nc(C)n(C(C)C)c5c4)n3)nc2)CC1` + C=CC(=O)N1CCN(c2nc(OCC3CCCN3C)nc3c2CCN(c2cccc4cccc(C)c24)C3)CC1CC#N gave an IC50 (curve of first compound, second compound 0.0316 µM) of over 1 µM, an IC50 [1] of over 1 µM and an IC50 [2] of over 1 µM. It also gave an IC50 [3] of over 1 µM, an IC50 [4] of 0.01 µM and a viability, T/C (second compound 0.0316 µM, first compound 0.00316 µM) of 105%. It also gave a viability, T/C (second compound 0.0316 µM, first compound 0.01 µM) of 102%, a viability, T/C (second compound 0.0316 µM, first compound 0.0316 µM) of 91.2% and a viability, T/C (second compound 0.0316 µM, first compound 0.1 µM) of 89.1%. It also gave a viability, T/C (second compound 0.0316 µM, first compound 0.316 µM) of 89.3%, a viability, T/C (second compound 0.0316 µM, first compound 1 µM) of 89.6% and a viability, T/C (second compound 0.1 µM, first compound 0.00316 µM) of 93.1%. It also gave a viability, T/C (second compound 0.1 µM, first compound 0.01 µM) of 93.6%, a viability, T/C [6] of 75.9% and a viability, T/C [7] of 74.5%. The viability, T/C [8] was 77.7%, the viability, T/C [9] was 91.2% and the viability, T/C (second compound 0.316 µM, first compound 0.00316 µM) was 101%. It also gave a viability, T/C (second compound 0.316 µM, first compound 0.01 µM) of 88.1%, a viability, T/C [12] of 78% and a viability, T/C [13] of 78.4%. It also gave a viability, T/C [14] of 76.6%, a viability, T/C [15] of 82.5% and a viability, T/C (second compound 1 µM, first compound 0.00316 µM) of 75.7%. For the same molecule, the viability, T/C (second compound 1 µM, first compound 0.01 µM) was 86.1%, the viability, T/C [18] was 78.1% and the viability, T/C [19] was 68.5%. For the same molecule, the viability, T/C [20] was 72.4%, the viability, T/C [21] was 82.3% and the viability, T/C (second compound 3.16 µM, first compound 0.00316 µM) was 53.1%. The viability, T/C (second compound 3.16 µM, first compound 0.01 µM) was 54.1%, the viability, T/C [24] was 46% and the viability, T/C [25] was 41.3%. For the same molecule, the viability, T/C [26] was 49.4% and the viability, T/C [27] was 47.6%.
With `CCNC(=O)CC1N=C(c2ccc(Cl)cc2)c2cc(OC)ccc2-n2c(C)nnc21` (stereo unspecified) + CNCc1ccccc1-c1csc(C(C)Nc2nc(C)nc3cc(OC)c(OC)cc23)c1 the IC50 [1] was over 10 µM, the IC50 [2] was over 10 µM and the IC50 [3] was over 10 µM. For the same molecule, the IC50 [4] was under 0.0316 µM, the IC50 [5] was under 0.0316 µM and the viability, T/C [6] was 122%. It also gave a viability, T/C [7] of 114%, a viability, T/C [8] of 77.3% and a viability, T/C [9] of 63.2%. The viability, T/C [10] was 53.7%, the viability, T/C [11] was 52.5% and the viability, T/C [12] was 118%. The viability, T/C [13] was 113%, the viability, T/C [14] was 81.9% and the viability, T/C [15] was 61.8%. It also gave a viability, T/C [16] of 55.1%, a viability, T/C [17] of 48.3% and a viability, T/C [18] of 110%. The viability, T/C [19] was 116%, the viability, T/C [20] was 79.1% and the viability, T/C [21] was 59.7%. It also gave a viability, T/C [22] of 52.6%, a viability, T/C [23] of 49.7% and a viability, T/C [24] of 1.45%. For the same molecule, the viability, T/C [25] was 11.5%, the viability, T/C [26] was 1.37% and the viability, T/C [27] was 1.56%. It also gave a viability, T/C [28] of 0.16%, a viability, T/C [29] of 0.43% and a viability, T/C [30] of 0.33%. It also gave a viability, T/C [31] of 0.2%, a viability, T/C [32] of 0.25% and a viability, T/C [33] of 0.16%. It also gave a viability, T/C [34] of 0.18% and a viability, T/C [35] of 0.26%.
In the case of `COc1cc2nccc(Oc3ccc(NC(=O)C4(C(=O)Nc5ccc(F)cc5)CC4)cc3)c2cc1OC`, the viability, T/C (compound 0.0316 µM) is reported as 111% [middle of 5 runs], the viability, T/C (compound 0.1 µM) is reported as 108% [middle of 5 runs] and the viability, T/C (compound 0.316 µM) is reported as 110% [middle of 5 runs]. The viability, T/C (compound 1 µM) was 102% [middle of 5 runs], the viability, T/C (compound 3.16 µM) was 74.1% [middle of 5 runs] and the viability, T/C (compound 10 µM) was 70.5% [middle of 5 runs]. It also gave an IC50 (curve of compound) of over 10 µM.
For `C=CC(=O)N1CCN(c2nc(OCC3CCCN3C)nc3c2CCN(c2cccc4cccc(C)c24)C3)CC1CC#N` (stereo unspecified), the viability, T/C (compound 0.0316 µM) was 103% [middle of 17 runs], the viability, T/C (compound 0.316 µM) was 94.9% [middle of 17 runs] and the IC50 (compound alone, run of 08/19/2021) was > 3.16 µM and 2.89 µM and 2.93 µM. The IC50 (compound alone, run of 08/26/2021) was > 3.16 µM and 3.06 µM and the IC50 (compound alone, run of 09/02/2021) was > 3.16 µM and 2.96 µM and 2.89 µM.
In the case of `CC(C)NCC(C(=O)N1CCN(c2ncnc3c2C(C)CC3O)CC1)c1ccc(Cl)cc1` (stereo unspecified), the viability, T/C (compound 0.0316 µM) is reported as 95.8% [middle of 5 runs], the viability, T/C (compound 0.1 µM) is reported as 83.2% [middle of 5 runs] and the viability, T/C (compound 0.316 µM) is reported as 75.3% [middle of 5 runs]. For the same molecule, the viability, T/C (compound 1 µM) was 75.9% [middle of 5 runs], the viability, T/C (compound 3.16 µM) was 84.6% [middle of 5 runs] and the viability, T/C (compound 10 µM) was 56.9% [middle of 5 runs]. The IC50 (curve of compound) was over 10 µM.
